# BindingDB's records for patent US20240254114 (Merck Sharp & Dohme, 2024)
# Molecular target: T1, Diacylglycerol O-acyltransferase 2 (Homo sapiens, UniProt Q96PD7)
# T1 sequence (Q96PD7 whole entry): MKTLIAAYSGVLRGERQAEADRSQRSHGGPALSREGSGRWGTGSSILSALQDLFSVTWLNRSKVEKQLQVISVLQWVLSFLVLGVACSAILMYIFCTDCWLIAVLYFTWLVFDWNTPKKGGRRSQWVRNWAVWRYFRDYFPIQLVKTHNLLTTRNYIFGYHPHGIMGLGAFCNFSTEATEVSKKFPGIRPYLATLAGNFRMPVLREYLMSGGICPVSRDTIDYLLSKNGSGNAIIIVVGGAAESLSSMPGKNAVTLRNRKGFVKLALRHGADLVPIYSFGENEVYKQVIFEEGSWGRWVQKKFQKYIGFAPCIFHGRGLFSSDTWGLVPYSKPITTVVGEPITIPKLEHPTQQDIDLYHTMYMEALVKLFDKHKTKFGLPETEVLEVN
# Assay: DGAT2 Enzymatic Activity Assay
# Experimental: DGAT2 activity was determined by measuring the amount of enzymatic product 13C18-triolein (13C-1,2,3-Tri(cis-9-octadecenoyl)glycerol) using the membrane prep mentioned above. The assay was carried out in ABgene 384-well assay plates in a final volume of 25 uL at rt.
structure (smiles),measurement,value
"O=C(NC1CN(C(=O)C(F)(F)F)C1)c1nc2ccc(Oc3ncc(Cl)cc3OCC(F)(F)F)cc2o1 [US20240254114, Example 8]",IC50,1010 nM
